{"source": "patent US20240308982A1", "about": "“DEGRADERS OF WILD-TYPE AND MUTANT FORMS OF LRRK2 AND USES THEREOF” (DANA-FARBER CANCER INSTITUTE, INC., priority 2021, published 2024)", "system": "LRRK2", "experiment": "Degradation of LRRK2 (immunoblots of treated cells)", "assay_type": "cell-based", "settings": "448T cells, immunoblot, concentrations 0 to 1000 nM", "description": "Example 7: Degradation of LRRK2\nCell lines: Mouse embryonic fibroblast (MEF) WT, LRRK2 homozygous knock-ins in MEFs [R1441C; VPS35N(D620N); G2019S].\nTested concentrations of LRRK2 degraders: 0 nM; 10 nM; 30 nM; 100 nM; 300 nM; 1000 nM.\nExperimental time points: 1 h; 6 h; 24 h and 48 h.\nComplete growth medium: DMEM supplemented with 10% Fetal Bovine Serum; 1% pen/strep; 1% L-Glutamine; 1% MEM Non-essential Amino Acid Solution; 1% sodium pyruvate.\nTreatment: WT MEF, and cells containing mutant LRRK2 (R1441C, VPS35N and G2019S) cells were plated at equal density into 6-well plates in a final volume of 3 mL of complete growth medium/well. Degraders were reconstituted in DMSO and used at 1:1000 in cells i.e., 3 μL/3 mL. Treatment began when cells were >60% confluent, starting from the longest, 48 h time point, followed by 24 h, 6 h and finally 1 h.\nCell lysis: Media were aspirated, plates were placed on ice and cells were washed with DPBS. Fifty (50) microliters of an ice-cold lysis buffer containing 50 mM Tris-HCl, pH 7.5, 1% (v/v) Triton X-100, 1 mM EGTA, 1 mM sodium orthovanadate, 50 mM NaF, 0.1% (v/v) 2-mercaptoethanol, 10 mM 2-glycerophosphate, 5 mM sodium pyrophosphate, 0.1 μg/mL microcystin-LR (Enzo Life Sciences), 270 mM sucrose and complete EDTA-free protease inhibitor cocktail (Sigma-Aldrich Cat #11836170001) were added per well. Lysates were centrifuged at 20 817 g (14,000 rpm) for 15 min at 4° C. and supernatants were used to determine protein concentration using Bradford assay (Pierce™ Coomassie (Bradford) Protein Assay Kit, Thermo Scientific Cat #23200) and for Western blot analysis.\nWestern blot analysis: Cell lysates were mixed with 4× SDS-PAGE sample buffer [50 mM Tris —HCl, pH 6.8, 2% (w/v) SDS, 10% (v/v) glycerol, 0.02% (w/v) Bromophenol Blue and 1% (v/v) 2-mercaptoethanol] to a final total protein concentration of 1 μg/μL and heated at 95° C. for 5 min. […]", "data": [{"smiles": "CC1(Oc2ccc3[nH]nc(-c4cc(N5CCN(CC6CN(c7ccc8c(c7)C(=O)N(C7CCC(=O)NC7=O)C8=O)C6)CC5)ncn4)c3c2)CC1", "note": "(stereo not drawn) [Compound 1, 2-(2,6-dioxopiperidin-3-yl)-5-(3-((4-(6-(5-(1-methylcyclopropoxy)-1H-indazol-3-yl)pyrimidin-4-yl)piperazin-1-yl)methyl)azetidin-1-yl)isoindoline-1,3-dione]", "values": [{"measurement": "DC50", "result": 33, "unit": "nM"}, {"measurement": "Dmax", "result": 60, "unit": "%"}, {"measurement": "degrader of LRRK2", "result": "potent degrader of LRRK2"}]}]}
